Results as given in patent publication US20060199853A1, “Analogs of 4-hydroxyisoleucine and uses thereof” (priority 2005, published 2006).

Tests used:
[1] = test system: differentiated 3T3-L1 adipocyte cells; test: Stimulation of glucose uptake (3H-deoxy-glucose) by differentiated 3T3-L1 adipocyte cells; type: cell-based; conditions: insulin at 10^-7 M; for stimulation of glucose uptake beyond that caused by insulin alone: FIG. 15B, 0.5 mM; for stimulation of glucose uptake: FIG. 15A, compounds at three concentrations, last 30 min of starvation
Protocol: Selected analogs according to the invention were tested for their effect on the uptake of ^3H-deoxy-glucose by differentiated 3T3-L1 adipocyte cells. Briefly, 3T3-L1 adipocyte cells (ATCC; Cl-173) were cultured in 12 well tissue culture plates for 3 days in order to reach confluence (Lakshmanan et al., Diabetes Mellitus: Methods and Protocols, Saire Ozcna, Ed., Humana Press Inc., Tonowa, N.J. 97-103, 2003). The culture medium was removed and replaced with differentiation medium (Green and Meuth, Cell 3:127-133, 1974; Madsen et al., Biochem. J. 375:539-549, 2003) and then the cells were incubated for an additional 9 days. The state of differentiation was confirmed by visual examination. Cell starvation was conducted for 5 hours by replacing the differentiation medium with one lacking fetal calf serum. During the last 30 minutes of the starvation period, the cells were exposed to compounds to be assayed at a range of concentrations. As a positive control, cells were exposed to insulin (0.0167 U/mL; Sigma; Cat. No. 15534) for the last 30 minutes of the starvation period Cells were exposed to 0.5 mM isoleucine are used as a control for background uptake. All treatments were performed in triplicate. Cells were washed, then fresh medium containing 16 μM ^3H-Deoxy-D-glucose (0.5 μCi/mL) and 10 μM 2-Deoxy-D-glucose was added and the cells were incubated for 10 min. Glucose uptake was stopped by washing the cells with ice cold PBS. The cells were lysed and specific activity in the lysate was determined relative to background uptake of ^3H-deoxy-glucose. Results were standardized on the basis of protein content per well.
FIG. 1 5B is another figure showing insulin stimulation of glucose uptake by insulin at 10^−7M, and by the analogs of the invention.

[2] = test system: Diet Induced Obesity (DIO)-C57BL/6 Mice; test: Glycemic response to an OGTT after a single oral administration in DIO-C57BL/6 mice; type: in vivo; conditions: FIGS. 18A, 18B; for glycemic response following OGTT (delta glycemia AUC): 100 mg/kg, OGTT 10 minutes post-administration; for efficacy relative to the other compounds tested: OGTT
Protocol: Studies were conducted to evaluate the effect of acute oral administration of selected analogs according to the invention on the glycemic response of Diet-Induced Obesity (DIO)-C57BI/6 mice following an Oral Glucose Tolerance Test (OGTT).
In the first study, a total of 40 mice were used. The animals were randomized according to their basal glycemia values following a 5±0.5 hours fasting period and then distributed into 5 groups (1 control and 4 treated groups). Each group was composed of 8 animals. On the day of treatment, test articles were dissolved in reverse osmosis water and kept on ice. Control group (Group 1) received sterile water and Group 2 to 5 received 100 mg/kg of Compound #14a, Compound #128, Compound #133 and Compound #13e, respectively.
On the day of experimentation, animals were fasted ˜5 hours prior to the OGTT and then OGTT was performed at 10 minutes post-test article administration, by oral gavage administration of 40% glucose solution. Whole blood glucose levels were monitored using a hand-held glucometer prior to OGTT and for up to 2 hours post-lucose challenge.
In a separate experiment, the effect of acute oral administration of another analog, Compound #85(101a), on the glycemic response of DIO-mice was evaluated using the same experimental design.
FIGS. 18A and 18B show the glycemic response of mice following an OGTT performed after a single oral administration of Compounds #14a, #128, #133, #13e, and #85(101a). For both figures, delta glycemia values were calculated by substraction of pre-OGTT glycemia value. AUC values were obtained from the delta glycemia curves. Values represent the mean±SEM. N=8 animals/group. Ctl=Control DIO.*p<0.05; . . . p<0.001.

[3] = test system: Diet Induced Obesity (DIO)-C57BL/6 Mice; test: Glycemic response to an OGTT during chronic oral administration in DIO-C57BL/6 mice; type: in vivo; conditions: for time of maximal effect on control of glycemia: chronic oral administration twice daily
Protocol: Studies were conducted to evaluate the effect of a chronic oral administration of selected analogs according to the invention on the glycemic response of Diet-induced Obesity (DIO)-C57BI/6 mice following an Oral Glucose Tolerance Test (OGTT) performed weekly.
In a first study, a total of 56 animals were used. The animals were distributed into 7 groups (6 treated and 1 high fat diet control groups). Each group was composed of 8 animals. The mice were randomized according to basal glycemia values following a 5±0.5 hours fasting period. Compound #14a and #133 were dissolved in reverse osmosis water while Compound #13e was dissolved in 200 mM Bicarbonate/0.1% Tween-20 buffer, pH=9.0. Compounds #14a and #133 were kept at 4° C (administration to groups 2 & 3, and 4 & 5, respectively) while Compound #13e was freshly prepared daily. Control animals received sterile saline, twice daily (Groups 1 […]). Mice from groups 2 and 3 were treated twice daily with Compound #14a at 50 and 100 mg/kg, respectively. Animals from groups 4 and 5 received twice daily 50 and 100 mg/kg of Compound #133, respectively. Mice from groups 6 and 7 received 25 and 50 mg/kg of Compound #13e, twice daily, respectively.
On day 0, 7, 14, and 21, animals fasted for about 5 hours were challenged with an Oral Glucose Tolerance Test (OGTT) at 5 hours post-AM test article administration. Whole blood glucose levels were monitored using a hand-held glucometer prior to OGTT and for up to 2 hours post-glucose challenge. In a separate experiment, the same experimental design was used to evaluate the effect of chronic administration of Compound #85(101a) on the glycemic response of DIO-C57BI/6 mice following an Oral Glucose Tolerance Test (OGTT) performed after 7 days of treatment.
FIGS. 19A, 19B, 19C, and 19D are bar graphs showing glycemic response of mice following an OGTT performed after 7 days (FIGS. 19A and 19D), 14 days (FIG. 19B) or 21 days (FIG. 19C) of treatment after chronic oral administration of selected analogs according to the invention. For each figure, delta glycemia values were calculated by substraction of pre-OGTT glycemia value. AUC values were obtained from the delta glycemia curves. Values represent the mean±SEM. N=8 animals/group. Ctl=Control DIO.*p<0.05.

INS-1 cells = test: Glucose-dependent stimulation of insulin secretion in INS-1 cells; type: cell-based; conditions: for insulin stimulating activity: 0.5 mM compound, 4.5 mM glucose; for stimulation of insulin secretion: FIGS. 17A-17E, single concentration of 0.5 mM, 4.5 or 5 mM glucose
Protocol: Selected analogs according to the invention were tested in a blinded fashion for insulinotropic effect on INS-1 cells. Briefly, the cells were plated at a density of 2×10^5 in 12 well plates and incubated for 2 days in RPMI with 10% fetal calf serum and 11 mM glucose. The medium was removed on the third day post-plating and replaced with RPMI containing 3 mM glucose with 10% fetal calf serum. The cells were incubated for an additional 24 hours. On the fourth day post-plating, the medium was removed and replaced with Krebs-Ringer bicarbonate buffer containing 2 mM glucose. The cells were incubated for 30 min and the buffer was removed and replaced with Krebs-Ringer bicarbonate buffer with 4.5 mM glucose containing the compounds to be tested at a concentration of 0.5 mM. The cells were incubated for 1 hour. Basal insulin secretion was determined by incubating the cells in the presence of buffer with 2 mM glucose. The presence of glucose at 4.5 and 10 mM stimulated insulin secretion served as the reference control and positive control, respectively.
Selected analogs according to the invention were screened for insulinotropic effect on INS-1 pancreatic beta cells according to the method described in Example 3.

Row | Compound | glycemic response following OGTT (delta glycemia AUC) [2] | stimulation of insulin secretion (INS-1 cells) | stimulation of glucose uptake [1] | other results
1 | N[C@H](C(=O)O)[C@@H]1CCCC[C@H]1O [#13e] | significant effect on the glycemic control of DIO-mice | more effective to stimulate insulin secretion than parent compound #14a |  | stimulation of glucose uptake beyond that caused by insulin alone [1]: greater than the stimulation caused by the parent compound; efficacy relative to the other compounds tested [2]: most efficacious; glycemia increase following OGTT ([3]; 25 and 50 mg/kg twice daily, half the dose of the other treated groups): significantly reduced the glycemia increase in DIO-mice; hyperglycaemic response following OGTT ([3]; 25 and 50 mg/kg twice daily, Day 21, FIG. 19C): reduced significantly the hyperglycaemic response of animals; time of maximal effect on control of glycemia [3]: 14 days post-initiation of treatment; insulin stimulating activity (INS-1 cells; FIG. 16A, 1 hour): most effective; insulin stimulating activity (INS-1 cells; FIG. 16B): most effective
2 | C[C@@H]([C@H](C)O)[C@H](N)C(=O)O [#14a] | significant effect on the glycemic control of DIO-mice | significant insulin stimulating activity in all the experiments | stimulated glucose uptake at all three concentrations tested | stimulation of glucose uptake beyond that caused by insulin alone [1]: limited stimulation of glucose uptake beyond that caused by insulin alone; time of maximal effect on control of glycemia [3]: 14 days post-initiation of treatment; insulin stimulating activity (INS-1 cells; FIG. 16A, 1 hour): significant insulin stimulating activity
3 | N[C@H](C(=O)O)[C@H]1CCCC[C@H]1O [#15e] |  | more effective to stimulate insulin secretion than parent compound #14a |  | 
4 | CC1C(O)CN[C@@H]1C(=O)O (some centres unmarked) [#22] |  | more effective to stimulate insulin secretion than parent compound #14a |  | 
5 | CC(O)C1C(O)CN[C@@H]1C(=O)O (some centres unmarked) [#33] |  |  | at least equivalent activity to the parent compound | 
6 | NC(CC(O)C1CCCCC1)C(=O)O (centres unmarked) [#59] |  | more effective to stimulate insulin secretion than parent compound #14a |  | 
7 | NC(CC(O)c1ccccc1)C(=O)O (centres unmarked) [#61] |  | more effective to stimulate insulin secretion than parent compound #14a |  | 
8 | C[C@H]([C@H](N)C(=O)O)C(C)(C)O [#85(101a)] | significant effect on the glycemic control of DIO-mice |  |  | efficacy relative to the other compounds tested [2]: most efficacious; glycemic control following OGTT ([3]; 7 consecutive days of administration, statistically significant vs control, FIG. 19D): improved the glycemic control of DIO-mice
9 | C=CC(C)(C)C(N)C(=O)O (centres unmarked) [#102b] |  |  | at least equivalent activity to the parent compound | 
10 | CC(=O)N[C@@H]1C(=O)O[C@@H](C)[C@@H]1C [#104] |  | more effective to stimulate insulin secretion than parent compound #14a |  | 
11 | CC(C)[C@H](NC[C@@H](C)O)C(=O)O [#133] | significant effect on the glycemic control of DIO-mice |  |  | time of maximal effect on control of glycemia [3]: 14 days post-initiation of treatment
12 | O=C(O)[C@H]1C[C@@H](O)CN1 [#201] |  | more effective to stimulate insulin secretion than parent compound #14a |  | 
13 | insulin [reference compound] |  |  | strongly promoted glucose uptake | 
